Reference: ChEMBL document CHEMBL4680222, “Sensitive fluorogenic substrates for sirtuin deacylase inhibitor discovery” (Eur J Med Chem, 2020)
Activity calls are given as the source filed them. No cut-off for these calls is given here. *1 amine or outer side, *2 acyl side, *3 side chain or, on linkers, in order; H or OH if unused. Where a SMILES comes first, the peptide text is derived from it. The star is where a group is joined. AMC = Cc1cc(=O)oc2cc(N*)ccc12; Suc = O=C(CCC(=O)[*:2])[*:1]; Decanoyl = CCCCCCCCCC(=O)*

Columns and labels:
[1] = molecular target: T1, NAD-dependent protein deacetylase sirtuin-7 (Homo sapiens) (UniProt Q9NRC8); assay: Substrate activity at human N-terminal His-tagged SIRT7 (68 to 354 residues) expressed in Escherichia coli at 0.5 uM measured after 2 hrs in presence of NAD+ and trypsin by fluorescence assay
T1 sequence (whole entry): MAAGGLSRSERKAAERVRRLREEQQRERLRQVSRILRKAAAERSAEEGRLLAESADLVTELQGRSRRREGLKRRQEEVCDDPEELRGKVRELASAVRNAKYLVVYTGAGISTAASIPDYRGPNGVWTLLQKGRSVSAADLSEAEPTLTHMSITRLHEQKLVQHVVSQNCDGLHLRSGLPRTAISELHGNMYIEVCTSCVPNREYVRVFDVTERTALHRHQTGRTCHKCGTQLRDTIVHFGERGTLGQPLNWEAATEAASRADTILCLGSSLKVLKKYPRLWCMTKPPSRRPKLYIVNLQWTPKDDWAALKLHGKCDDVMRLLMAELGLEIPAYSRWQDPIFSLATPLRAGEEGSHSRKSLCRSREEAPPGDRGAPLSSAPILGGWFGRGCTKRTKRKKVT

[2] = molecular target: NAD-dependent protein deacylase sirtuin-6 (Homo sapiens) (UniProt Q8N6T7); assay: Substrate activity at human N-terminal His-tagged SIRT6 (1 to 355 residues) expressed in Escherichia coli at 0.5 uM measured after 2 hrs in presence of NAD+ and trypsin by fluorescence assay
Sequence of NAD-dependent protein deacylase sirtuin-6 (Homo sapiens) (Q8N6T7 whole entry, the tested form may be a part): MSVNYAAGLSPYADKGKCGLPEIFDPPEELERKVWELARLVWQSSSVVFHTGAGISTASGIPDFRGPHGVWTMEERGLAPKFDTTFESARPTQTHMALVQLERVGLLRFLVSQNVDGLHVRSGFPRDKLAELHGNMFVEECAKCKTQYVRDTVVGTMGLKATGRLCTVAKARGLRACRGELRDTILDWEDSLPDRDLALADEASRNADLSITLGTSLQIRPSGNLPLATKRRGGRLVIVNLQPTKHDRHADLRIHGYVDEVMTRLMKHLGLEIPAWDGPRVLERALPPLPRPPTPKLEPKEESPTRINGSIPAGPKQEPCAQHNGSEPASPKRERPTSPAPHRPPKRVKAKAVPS

[3] = molecular target: NAD-dependent protein deacylase sirtuin-5, mitochondrial (Homo sapiens) (UniProt Q9NXA8); assay: Substrate activity at human N-terminal His-tagged SIRT5 (34 to 302 residues) expressed in Escherichia coli at 0.5 uM measured after 2 hrs in presence of NAD+ and trypsin by fluorescence assay
Sequence of NAD-dependent protein deacylase sirtuin-5, mitochondrial (Homo sapiens) (Q9NXA8 37-310 limits assumed): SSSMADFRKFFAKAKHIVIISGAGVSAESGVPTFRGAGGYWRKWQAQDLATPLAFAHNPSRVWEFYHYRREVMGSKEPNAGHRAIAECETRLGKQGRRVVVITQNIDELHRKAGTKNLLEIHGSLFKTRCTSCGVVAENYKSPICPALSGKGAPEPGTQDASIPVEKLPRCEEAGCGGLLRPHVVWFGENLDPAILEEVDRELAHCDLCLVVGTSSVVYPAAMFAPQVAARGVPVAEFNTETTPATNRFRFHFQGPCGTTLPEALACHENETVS

[4] = molecular target: T2, NAD-dependent protein deacetylase sirtuin-3, mitochondrial (Homo sapiens) (UniProt Q9NTG7); assay: Substrate activity at human N-terminal His-tagged SIRT3 (122 to 391 residues) expressed in Escherichia coli at 0.5 uM measured after 2 hrs in presence of NAD+ and trypsin by fluorescence assay
T2 sequence (whole entry): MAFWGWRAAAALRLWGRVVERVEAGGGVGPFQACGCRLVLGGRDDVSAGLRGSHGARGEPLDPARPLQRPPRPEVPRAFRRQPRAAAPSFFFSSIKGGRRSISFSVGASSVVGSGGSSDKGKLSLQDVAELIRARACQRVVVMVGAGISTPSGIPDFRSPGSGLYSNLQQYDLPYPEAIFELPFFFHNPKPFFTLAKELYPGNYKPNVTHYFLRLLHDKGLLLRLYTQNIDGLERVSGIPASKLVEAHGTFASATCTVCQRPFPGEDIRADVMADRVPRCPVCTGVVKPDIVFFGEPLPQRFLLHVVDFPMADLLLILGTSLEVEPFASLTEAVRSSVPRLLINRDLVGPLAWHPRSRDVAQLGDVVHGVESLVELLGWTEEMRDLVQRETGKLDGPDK

[5] = molecular target: T3, NAD-dependent protein deacetylase sirtuin-2 (Homo sapiens) (UniProt Q8IXJ6); assay: Substrate activity at human N-terminal His-tagged SIRT2 (56 to 356 residues) expressed in Escherichia coli at 0.5 uM measured after 2 hrs in presence of NAD+ and trypsin by fluorescence assay
T3 sequence (whole entry): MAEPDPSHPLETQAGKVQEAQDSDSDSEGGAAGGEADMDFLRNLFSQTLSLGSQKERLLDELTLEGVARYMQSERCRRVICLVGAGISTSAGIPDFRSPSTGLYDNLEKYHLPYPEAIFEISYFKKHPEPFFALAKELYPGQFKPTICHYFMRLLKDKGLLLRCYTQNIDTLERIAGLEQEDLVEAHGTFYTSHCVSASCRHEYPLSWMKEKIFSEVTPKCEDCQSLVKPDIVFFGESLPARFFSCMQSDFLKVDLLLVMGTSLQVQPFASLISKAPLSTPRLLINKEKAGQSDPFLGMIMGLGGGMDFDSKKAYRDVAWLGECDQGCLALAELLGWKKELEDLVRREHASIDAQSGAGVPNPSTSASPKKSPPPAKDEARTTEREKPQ

[6] = molecular target: T4, NAD-dependent protein deacetylase sirtuin-1 (Homo sapiens) (UniProt Q96EB6); assay: Substrate activity at human N-terminal His-tagged SIRT1 (183 to 664 residues) expressed in Escherichia coli at 0.5 uM measured after 2 hrs in presence of NAD+ and trypsin by fluorescence assay
T4 sequence (whole entry): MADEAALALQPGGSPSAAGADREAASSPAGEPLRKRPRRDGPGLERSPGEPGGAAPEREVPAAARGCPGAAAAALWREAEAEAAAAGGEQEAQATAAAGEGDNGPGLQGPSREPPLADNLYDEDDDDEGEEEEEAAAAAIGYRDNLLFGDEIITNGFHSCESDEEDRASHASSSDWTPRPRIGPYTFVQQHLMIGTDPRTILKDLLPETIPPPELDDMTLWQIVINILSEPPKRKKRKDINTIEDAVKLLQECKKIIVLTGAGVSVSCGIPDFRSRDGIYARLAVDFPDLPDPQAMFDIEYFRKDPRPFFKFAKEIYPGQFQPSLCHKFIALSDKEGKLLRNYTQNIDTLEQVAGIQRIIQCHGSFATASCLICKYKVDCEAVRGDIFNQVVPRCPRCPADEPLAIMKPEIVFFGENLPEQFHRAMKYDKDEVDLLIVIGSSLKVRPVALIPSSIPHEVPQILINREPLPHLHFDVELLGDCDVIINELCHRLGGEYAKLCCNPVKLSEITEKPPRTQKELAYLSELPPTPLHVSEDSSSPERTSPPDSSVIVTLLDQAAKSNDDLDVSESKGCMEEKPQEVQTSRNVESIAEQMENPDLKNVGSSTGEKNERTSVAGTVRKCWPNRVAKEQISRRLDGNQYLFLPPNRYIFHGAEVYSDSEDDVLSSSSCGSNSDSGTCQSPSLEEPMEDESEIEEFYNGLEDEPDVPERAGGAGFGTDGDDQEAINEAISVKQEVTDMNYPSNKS

[7] = molecular target: T1, NAD-dependent protein deacetylase sirtuin-7 (Homo sapiens); assay: Substrate activity at human N-terminal His-tagged SIRT7 (68 to 354 residues) expressed in Escherichia coli at 5 uM measured after 2 hrs in presence of NAD+ and trypsin by fluorescence assay
[8] = molecular target: NAD-dependent protein deacylase sirtuin-6 (Homo sapiens) (UniProt Q8N6T7); assay: Substrate activity at human N-terminal His-tagged SIRT6 (1 to 355 residues) expressed in Escherichia coli at 5 uM measured after 2 hrs in presence of NAD+ and trypsin by fluorescence assay
[9] = molecular target: NAD-dependent protein deacylase sirtuin-5, mitochondrial (Homo sapiens) (UniProt Q9NXA8); assay: Substrate activity at human N-terminal His-tagged SIRT5 (34 to 302 residues) expressed in Escherichia coli at 5 uM measured after 2 hrs in presence of NAD+ and trypsin by fluorescence assay
[10] = molecular target: T2, NAD-dependent protein deacetylase sirtuin-3, mitochondrial (Homo sapiens); assay: Substrate activity at human N-terminal His-tagged SIRT3 (122 to 391 residues) expressed in Escherichia coli at 5 uM measured after 2 hrs in presence of NAD+ and trypsin by fluorescence assay
[11] = molecular target: T3, NAD-dependent protein deacetylase sirtuin-2 (Homo sapiens); assay: Substrate activity at human N-terminal His-tagged SIRT2 (56 to 356 residues) expressed in Escherichia coli at 5 uM measured after 2 hrs in presence of NAD+ and trypsin by fluorescence assay
[12] = molecular target: T4, NAD-dependent protein deacetylase sirtuin-1 (Homo sapiens); assay: Substrate activity at human N-terminal His-tagged SIRT1 (183 to 664 residues) expressed in Escherichia coli at 5 uM measured after 2 hrs in presence of NAD+ and trypsin by fluorescence assay
[13] = molecular target: T1, NAD-dependent protein deacetylase sirtuin-7 (Homo sapiens); assay: Substrate activity at human N-terminal His-tagged SIRT7 (68 to 354 residues) expressed in Escherichia coli at 50 uM measured after 2 hrs in presence of NAD+ and trypsin by fluorescence assay
[14] = molecular target: NAD-dependent protein deacylase sirtuin-6 (Homo sapiens) (UniProt Q8N6T7); assay: Substrate activity at human N-terminal His-tagged SIRT6 (1 to 355 residues) expressed in Escherichia coli at 50 uM measured after 2 hrs in presence of NAD+ and trypsin by fluorescence assay
[15] = molecular target: NAD-dependent protein deacylase sirtuin-5, mitochondrial (Homo sapiens) (UniProt Q9NXA8); assay: Substrate activity at human N-terminal His-tagged SIRT5 (34 to 302 residues) expressed in Escherichia coli at 50 uM measured after 2 hrs in presence of NAD+ and trypsin by fluorescence assay
[16] = molecular target: T2, NAD-dependent protein deacetylase sirtuin-3, mitochondrial (Homo sapiens); assay: Substrate activity at human N-terminal His-tagged SIRT3 (122 to 391 residues) expressed in Escherichia coli at 50 uM measured after 2 hrs in presence of NAD+ and trypsin by fluorescence assay
[17] = molecular target: T3, NAD-dependent protein deacetylase sirtuin-2 (Homo sapiens); assay: Substrate activity at human N-terminal His-tagged SIRT2 (56 to 356 residues) expressed in Escherichia coli at 50 uM measured after 2 hrs in presence of NAD+ and trypsin by fluorescence assay
[18] = molecular target: T4, NAD-dependent protein deacetylase sirtuin-1 (Homo sapiens); assay: Substrate activity at human N-terminal His-tagged SIRT1 (183 to 664 residues) expressed in Escherichia coli at 50 uM measured after 2 hrs in presence of NAD+ and trypsin by fluorescence assay
[19] = molecular target: T3, NAD-dependent protein deacetylase sirtuin-2 (Homo sapiens); assay: Substrate activity at human N-terminal His-tagged SIRT2 (56 to 356 residues) expressed in Escherichia coli at 5 uM measured after 1 hr in presence of NAD+ and trypsin by fluorescence assay
[20] = molecular target: NAD-dependent protein deacylase sirtuin-5, mitochondrial (Homo sapiens) (UniProt Q9NXA8); assay: Substrate activity at human N-terminal His-tagged SIRT5 (34 to 302 residues) expressed in Escherichia coli at 5 uM measured after 1 hr in presence of NAD+ and trypsin by fluorescence assay

`CCCCCCCCCC(=O)NCCCC[C@H](NC(=O)[C@H](CC(=O)O)NC(=O)[C@@H](NC(=O)[C@H](CCC(=O)O)NC(C)=O)[C@@H](C)O)C(=O)Nc1ccc2c(C)cc(=O)oc2c1` (Ac-ETDK(Decanoyl)-{AMC}) showed an Activity [1] of 0.28 RFU, an Activity [2] of 0.39 RFU and an Activity [3] of 0.3 RFU. For the same compound, the Activity [4] was 0.51 RFU, the Activity [5] was 2.97 RFU and the Activity [6] was 2.97 RFU. For the same compound, the Activity [7] was 0.38 RFU, the Activity [8] was 0.33 RFU and the Activity [9] was 0.42 RFU. It also gave an Activity [10] of 0.66 RFU, an Activity [11] of 20.6 RFU and an Activity [12] of 1.37 RFU. It also gave an Activity [13] of 0.73 RFU, an Activity [14] of 0.73 RFU and an Activity [15] of 1.24 RFU. It also gave an Activity [16] of 1.86 RFU, an Activity [17] of 79.9 RFU and an Activity [18] of 4.13 RFU. The Activity [19] was “Active”.
`CC(=O)N[C@@H](Cc1cnc[nH]1)C(=O)N[C@@H](Cc1ccccc1)C(=O)N[C@@H](CO)C(=O)N[C@@H](CCCCNC(=O)CCC(=O)O)C(=O)Nc1ccc2c(C)cc(=O)oc2c1` (Ac-HFSK(Suc)-{AMC}) showed an Activity [1] of 0.28 RFU, an Activity [2] of 0.41 RFU and an Activity [3] of 1.15 RFU. It also gave an Activity [4] of 0.49 RFU, an Activity [5] of 0.16 RFU and an Activity [6] of 0.16 RFU. For the same compound, the Activity [7] was 1.36 RFU, the Activity [8] was 0.32 RFU and the Activity [9] was 8.98 RFU. It also gave an Activity [10] of 0.55 RFU, an Activity [11] of 0.21 RFU and an Activity [12] of 0.36 RFU. It also gave an Activity [13] of 0.51 RFU, an Activity [14] of 0.51 RFU and an Activity [15] of 0.71 RFU. The Activity [16] was 0.89 RFU, the Activity [17] was 1.03 RFU and the Activity [18] was 0.69 RFU. For the same compound, the Activity [20] was “Active”.
With `CC(=O)N[C@@H](CO)C(=O)N[C@@H](CC(C)C)C(=O)NCC(=O)N[C@@H](CCCCNC(=O)CCC(=O)O)C(=O)Nc1ccc2c(C)cc(=O)oc2c1` (Ac-SLGK(Suc)-{AMC}) the Activity [1] was 0.3 RFU, the Activity [2] was 0.38 RFU and the Activity [3] was 3.36 RFU. It also gave an Activity [4] of 0.48 RFU, an Activity [5] of 0.24 RFU and an Activity [6] of 0.24 RFU. The Activity [7] was 0.41 RFU, the Activity [8] was 0.37 RFU and the Activity [9] was 21.5 RFU. It also gave an Activity [10] of 0.53 RFU, an Activity [11] of 0.25 RFU and an Activity [12] of 0.44 RFU. The Activity [13] was 1.18 RFU, the Activity [14] was 1.18 RFU and the Activity [15] was 1.5 RFU. The Activity [16] was 1.32 RFU, the Activity [17] was 1.03 RFU and the Activity [18] was 1.05 RFU. For the same compound, the Activity [20] was “Active”.
`CCCCCCCCCC(=O)NCCCC[C@H](NC(=O)[C@@H](NC(=O)[C@H](CO)NC(=O)[C@H](CO)NC(C)=O)[C@@H](C)CC)C(=O)Nc1ccc2c(C)cc(=O)oc2c1` (Ac-SSIK(Decanoyl)-{AMC}) gave an Activity [1] of 0.29 RFU, an Activity [2] of 0.4 RFU and an Activity [3] of 0.31 RFU. It also gave an Activity [4] of 0.67 RFU, an Activity [5] of 1.38 RFU and an Activity [6] of 1.38 RFU. The Activity [7] was 1.03 RFU, the Activity [8] was 0.3 RFU and the Activity [9] was 0.39 RFU. It also gave an Activity [10] of 1.04 RFU, an Activity [11] of 7.07 RFU and an Activity [12] of 2.13 RFU. It also gave an Activity [13] of 0.73 RFU, an Activity [14] of 0.73 RFU and an Activity [15] of 1.08 RFU. For the same compound, the Activity [16] was 1.64 RFU, the Activity [17] was 13.5 RFU and the Activity [18] was 1.34 RFU. The Activity [19] was “Active”.
